How the values were obtained:
[1] = Cytotoxicity against human TK10 cells assessed as cell growth at 10^-8 M after 24 hrs by SRB assay; assay type: functional; conditions: TK-10, 24 h, read-out: Activity
[2] = tested on: MCF7; assay: Cytotoxicity against human MCF7 cells assessed as cell growth at 10^-8 M after 24 hrs by SRB assay; assay type: functional; conditions: MCF7, 24 h, read-out: Activity
[3] = Cytotoxicity against human HL-60(TB) cells assessed as cell growth at 10^-7 M after 24 hrs by SRB assay; assay type: functional; conditions: HL-60, 24 h, read-out: Activity
[4] = Cytotoxicity against human MOLT4 cells assessed as cell growth at 10^-7 M after 24 hrs by SRB assay; assay type: functional; conditions: MOLT-4, 24 h, read-out: Activity
[5] = tested on: NCI-H322M; assay: Cytotoxicity against human NCI-H322M cells assessed as cell growth at 10^-7 M after 24 hrs by SRB assay; assay type: functional; conditions: read-out: Activity
[6] = tested on: NCI-H460; assay: Cytotoxicity against human NCI-H460 cells assessed as cell growth at 10^-7 M after 24 hrs by SRB assay; assay type: functional; conditions: NCI-H460, 24 h, read-out: Activity
[7] = Cytotoxicity against human SF268 cells assessed as cell growth at 10^-7 M after 24 hrs by SRB assay; assay type: functional; conditions: SF-268, 24 h, read-out: Activity
[8] = Cytotoxicity against human OVCAR4 cells assessed as cell growth at 10^-7 M after 24 hrs by SRB assay; assay type: functional; conditions: OVCAR-4, 24 h, read-out: Activity
[9] = tested on: ACHN; assay: Cytotoxicity against human ACHN cells assessed as cell growth at 10^-7 M after 24 hrs by SRB assay; assay type: functional; conditions: read-out: Activity
[10] = Cytotoxicity against human SNB19 cells after 24 hrs by SRB assay; assay type: functional; conditions: SNB-19, 24 h
[11] = Cytotoxicity against human HCT116 cells assessed as cell growth at 10^-4 M after 24 hrs by SRB assay; assay type: functional; conditions: HCT-116, 24 h, read-out: Activity
[12] = tested on: M14; assay: Cytotoxicity against human M14 cells after 24 hrs by SRB assay; assay type: functional, cell-based; conditions: M14, 24 h
[13] = Cytotoxicity against human BT549 cells assessed as cell growth at 10^-7 M after 24 hrs by SRB assay; assay type: functional; conditions: BT-549, 24 h, read-out: Activity
[14] = tested on: NCI-H226; assay: Cytotoxicity against human NCI-H226 cells assessed as cell growth at 10^-6 M after 24 hrs by SRB assay; assay type: functional; conditions: NCI-H226, 24 h, read-out: Activity
[15] = tested on: 786-0; assay: Cytotoxicity against human 786-0 cells assessed as cell growth at 10^-4 M after 24 hrs by SRB assay; assay type: functional; conditions: 786-0, 24 h, read-out: Activity
[16] = Cytotoxicity against human PC3 cells assessed as cell growth at 10^-4 M after 24 hrs by SRB assay; assay type: functional; conditions: PC-3, 24 h, read-out: Activity
[17] = tested on: T47D; assay: Cytotoxicity against human T47D cells assessed as cell growth at 10^-4 M after 24 hrs by SRB assay; assay type: functional; conditions: read-out: Activity
[18] = tested on: NCI-H522; assay: Cytotoxicity against human NCI-H522 cells assessed as cell growth at 10^-6 M after 24 hrs by SRB assay; assay type: functional; conditions: NCI-H522, 24 h, read-out: Activity
[19] = tested on: M14; assay: Cytotoxicity against human M14 cells assessed as cell growth at 10^-6 M after 24 hrs by SRB assay; assay type: functional; conditions: M14, 24 h, read-out: Activity
[20] = tested on: 786-0; assay: Cytotoxicity against human 786-0 cells assessed as cell growth at 10^-6 M after 24 hrs by SRB assay; assay type: functional; conditions: 786-0, 24 h, read-out: Activity
[21] = Cytotoxicity against human UO31 cells assessed as cell growth at 10^-6 M after 24 hrs by SRB assay; assay type: functional; conditions: UO-31, 24 h, read-out: Activity
[22] = tested on: MCF7; assay: Cytotoxicity against human MCF7 cells assessed as cell growth at 10^-6 M after 24 hrs by SRB assay; assay type: functional; conditions: MCF7, 24 h, read-out: Activity
[23] = Cytotoxicity against human OVCAR4 cells after 24 hrs by SRB assay; assay type: functional; conditions: OVCAR-4, 24 h
[24] = tested on: T47D; assay: Cytotoxicity against human T47D cells after 24 hrs by SRB assay; assay type: functional
[25] = tested on: NCI-H460; assay: Cytotoxicity against human NCI-H460 cells assessed as cell growth at 10^-8 M after 24 hrs by SRB assay; assay type: functional; conditions: NCI-H460, 24 h, read-out: Activity
[26] = Cytotoxicity against human HCT15 cells assessed as cell growth at 10^-8 M after 24 hrs by SRB assay; assay type: functional; conditions: HCT-15, 24 h, read-out: Activity
[27] = Cytotoxicity against human SNB75 cells assessed as cell growth at 10^-8 M after 24 hrs by SRB assay; assay type: functional; conditions: SNB-75, 24 h, read-out: Activity
[28] = tested on: SK-MEL-5; assay: Cytotoxicity against human SK-MEL-5 cells assessed as cell growth at 10^-8 M after 24 hrs by SRB assay; assay type: functional; conditions: SK-MEL-5, 24 h, read-out: Activity
[29] = Cytotoxicity against human UACC62 cells assessed as cell growth at 10^-8 M after 24 hrs by SRB assay; assay type: functional; conditions: UACC-62, 24 h, read-out: Activity
[30] = tested on: T47D; assay: Cytotoxicity against human T47D cells assessed as cell growth at 10^-6 M after 24 hrs by SRB assay; assay type: functional; conditions: read-out: Activity
[31] = tested on: K562; assay: Cytotoxicity against human K562 cells assessed as cell growth at 10^-5 M after 24 hrs by SRB assay; assay type: functional; conditions: K562, 24 h, read-out: Activity
[32] = Cytotoxicity against human MOLT4 cells assessed as cell growth at 10^-5 M after 24 hrs by SRB assay; assay type: functional; conditions: MOLT-4, 24 h, read-out: Activity
[33] = tested on: NCI-H226; assay: Cytotoxicity against human NCI-H226 cells assessed as cell growth at 10^-5 M after 24 hrs by SRB assay; assay type: functional; conditions: NCI-H226, 24 h, read-out: Activity
[34] = tested on: NCI-H322M; assay: Cytotoxicity against human NCI-H322M cells assessed as cell growth at 10^-5 M after 24 hrs by SRB assay; assay type: functional; conditions: read-out: Activity
[35] = tested on: NCI-H460; assay: Cytotoxicity against human NCI-H460 cells assessed as cell growth at 10^-5 M after 24 hrs by SRB assay; assay type: functional; conditions: NCI-H460, 24 h, read-out: Activity
[36] = Cytotoxicity against human SW620 cells assessed as cell growth at 10^-5 M after 24 hrs by SRB assay; assay type: functional; conditions: SW-620, 24 h, read-out: Activity
[37] = Cytotoxicity against human SF295 cells assessed as cell growth at 10^-5 M after 24 hrs by SRB assay; assay type: functional; conditions: SF-295, 24 h, read-out: Activity
[38] = Cytotoxicity against human Caki1 cells assessed as cell growth at 10^-5 M after 24 hrs by SRB assay; assay type: functional; conditions: CAKI-1, 24 h, read-out: Activity
[39] = read-out: LC50 (the source's name)
[40] = read-out: pLC50 (the source's name) (converted)

## O=C(Nc1cc(-c2cccnc2)nc(NCCCN2CCOCC2)n1)c1cc(Br)cc(C(F)(F)F)c1
[1]
  growth at 0.01 µM: 91%
[2]
  growth at 0.01 µM: 95%
[3]
  growth at 0.1 µM: 96%
[4]
  growth at 0.1 µM: 95%
[5]
  growth at 0.1 µM: 107%
[6]
  growth at 0.1 µM: 100%
[7]
  growth at 0.1 µM: 94%
[8]
  growth at 0.1 µM: 90%
[9]
  growth at 0.1 µM: 100%
[10]; read-out: GI50
  GI50: 2.5 µM
[10]; [39]
  CC50: 21.5 µM
[10]; read-out: TGI
  TGI: 5.75 µM
[10]; read-out: pGI50 (converted)
  GI50: 2.51 µM
[10]; [40]
  CC50: 21.4 µM
[10]; read-out: pTGI (converted)
  TGI: 5.75 µM
[11]
  growth at 100 µM: -88%
[12]
  GI50: 1.66 µM
[12]; [39]
  CC50: 6.59 µM
[12]; read-out: TGI
  TGI: 3.32 µM
[12]; [40]
  CC50: 6.61 µM
[12]; read-out: pTGI (converted)
  TGI: 3.31 µM
[13]
  growth at 0.1 µM: 97%
[14]
  growth at 1 µM: 84%
[15]
  growth at 100 µM: -87%
[16]
  growth at 100 µM: -93%
[17]
  growth at 100 µM: -83%
[18]
  growth at 1 µM: 83%
[19]
  growth at 1 µM: 87%
[20]
  growth at 1 µM: 81%
[21]
  growth at 1 µM: 69%
[22]
  growth at 1 µM: 77%
[23]; read-out: GI50
  GI50: 3.26 µM
[23]; [39]
  CC50: 39.9 µM
[23]; read-out: TGI
  TGI: 14.5 µM
[23]; read-out: pGI50 (converted)
  GI50: 3.24 µM
[23]; [40]
  CC50: 39.8 µM
[23]; read-out: pTGI (converted)
  TGI: 14.5 µM
[24]; read-out: GI50
  GI50: 3.72 µM
[24]; [39]
  CC50: 48.5 µM
[24]; read-out: TGI
  TGI: 16.1 µM
[24]; read-out: pGI50 (converted)
  GI50: 3.72 µM
[24]; [40]
  CC50: 49 µM
[24]; read-out: pTGI (converted)
  TGI: 16.2 µM
[25]
  growth at 0.01 µM: 99%
[26]
  growth at 0.01 µM: 91%
[27]
  growth at 0.01 µM: 88%
[28]
  growth at 0.01 µM: 95%
[29]
  growth at 0.01 µM: 89%
[30]
  growth at 1 µM: 88%
[31]
  growth at 10 µM: 4%
[32]
  growth at 10 µM: 9%
[33]
  growth at 10 µM: 49%
[34]
  growth at 10 µM: 19%
[35]
  growth at 10 µM: -5%
[36]
  growth at 10 µM: -34%
[37]
  growth at 10 µM: -66%
[38]
  growth at 10 µM: 3%
